Consider 14 molecules from patent publication US10660789B2, “1,4-dihydropyridine derivatives with HSP modulating activity” (Richter Gedeon NYRT., priority 2011, dated 2020).

One data set has as its system other Hsps. Nature of the data set: Other in vitro HSP modulating effects (Table 3). Format: cell-based, mouse and human. More on the design: key: +: co-inducing activity; −: silencing activity; 0: with the experimental methods applied no other HSP modulating effects could be identified. How it is done:
(§1) The Hsp co-inducing effect of the compounds on stress response was tested on B16 mouse melanoma and SHSY5Y human neuroblastoma cell lines stably transfected with Hsp promoter probing plasmids. This kind of promoter probing, using the promoter region of a given gene conjugated with fluorescent protein is used as a best and fastest test system for finding drugs which modulate the activity of the gene followed by the given promoter (Wyshocka et al., Mol. Cel. Biochem. 215:153-156, 2000).
(§2) Reporter plasmids, containing the Hsp70 and/or Hsp25 promoter conjugated to either YFP or GFP (yellow or green fluorescent protein), were stably transfected into the cells and the expression of YFP or GFP was followed by flow cytometry. Cells were either kept at 37° C. or exposed to heat shock at 42° C. for 1 hour followed by a 16 hour recovery period at 37° C. in the presence or absence of different concentrations of the test compound. After recovery the expression of YFP or GFP which is in straight correlation with the promoter activity of Hsp70 or Hsp27 genes was followed by measuring the fluorescence intensity of the cells by flow cytometry. Fluorescence intensity is in straight correlation with the amount of fluorescent protein (GFP or YFP) produced under the control of hsp promoter. The mean fluorescence intensity of YFP or GFP produced is shown as “Hsp promoter activity”.
(§3) Cells were homogenously distributed on 6-well plates in 1×10^5 cells/well density. B16-pHsp25-GFP and B16-pHsp70-YFP melanoma cells were grown in RPMI-1640 medium supplemented with 10% Fetal bovine serum (FBS), penicillin (200 units/ml), streptomycin (200 μg/ml) and 2 mM L-Glutamine. For maintaining the SH-SY5Y-pHsp25-GFP and SH-SY5YpHsp70-YFP neuroblastoma cell lines Dulbecco's modified Eagle's medium (DMEM-F-12) containing 10% FBS, 2 mM L-Glutamine, penicillin (200 units/ml), streptomycin (200 μg/ml) and MEM non-essential amino acids were used. Before the treatments both cell lines were incubated at 37° C. in a saturated humidity atmosphere containing 95% air and 5% CO2. After 24 h incubation cells were pretreated with compounds of the invention in four different concentrations (usually in 3; 10; 20 and 50 μM) 30 min before the heat shock at 42° C. for 1 h and then incubated further at 37° C. for 16 h (recovery period). After this procedure cells were trypsinized and suspensed in 500 μl serum-free DMEM-F12 medium. The changes in cells' fluorescence were detected using BD FACSCalibur flow cytometer.
SY-SY5Y and B16 cells were extracted in NP-40 lysis buffer (PBS pH 7.4, 1% protease inhibitor coctail and 1% Triton X-100). The cell extracts were then constantly agitated at 4° C. for 2 h. The cell extracts were centrifuged at 12000×g for 30 min and supernatants were saved. After the protein concentration measurement 15 μg of total protein was separated by sodium dodecyl sulfate-polyacrylamide gel electrophoresis (SDS-PAGE) under reducing conditions according to the method of Laemmli. Proteins were blotted onto PVDF membrane. The blot was incubated overnight at 4° C. in the presence of mouse α-Hsp25, α-Hsp70, α-Hsp60 és α-Hsp90 monoclonal antibodies diluted in PBS. Then, the membrane was washed three times in PBS-0.05% Tween and incubated for 1 h in peroxidase-conjugated anti-mouse IgG antibody diluted 1:50000 in PBS containing 3% non-fat dry milk. The immune complexes were detected with chemo-luminescent substrate of peroxidase according to the supplier's instructions. Images taken from the membranes were analyzed using AlphaEase FC software.

In another data set the test system is B16 melanoma cells. Nature of the data set: Experimental metastatic melanoma, B16 cells i.v. in C57Bl/6 mice. Format: in vivo, mouse. On the procedure:
The anticancer activity was tested in C57Bl/6 mouse (B6), the best known syngeneic mouse model of experimental metastatic melanoma. C57Bl/6 mice injected with B16 melanoma cells subcutaneously or intramuscularly develop primary tumors that, in a part of the recipients, give rise to lung metastases. When the B16 cells are injected intravenously via the tail vein, a fraction of the tumor cells homes directly in the lung, where they develop into multiple independent tumor nodules termed “experimental metastases”. Although lung tumors are the most prominent, brain, liver and kidney tumors are also detectable in intravenously injected mice. Since the behavior of the tumor-bearing mice is quite uniform, the model is suitable for simultaneous testing of high numbers of drug candidates in a limited number of experimental animals.
The in vivo tumor experiments were performed with cultured B16 cells that were previously re-isolated from lung metastatic nodules, therefore their metastatic potential was kept optimal. The tumor cells liberated from the tumor mass by trypsin digestion were expanded in cell culture and stored in aliquots in liquid nitrogen, while the number of in vitro passages was kept to a minimum. In the experiments, B6 mice were injected with 100 000 B16 melanoma cells i.v. via the tail vein. The drug candidates were dissolved in physiological saline then they were administered i.p. in a volume of 100 ul. Daily treatment of tumor bearing mice started at day 7 after the tumor injection. The body weight of the mice was measured at day 1, 7, 14 and 21. The survival of the tumor bearing mice was recorded daily. All experiments were performed in accordance with national and European animal welfare guidelines. To prevent unnecessary suffering, moribund mice were euthanized.

A further data set concerns Hsp70 promoter. The experiment in a line: Hsp promoter probing, Hsp70 promoter-YFP reporter, flow cytometry (Table 3). Format: cell-based, mouse and human. More on the design: key: +: co-inducing activity; −: silencing activity; 0: with the experimental methods applied no other HSP modulating effects could be identified. As to conditions: heat shock 42° C. 1 h, 16 h recovery; B16 or SHSY5Y reporter cells, cell line per value not stated. On the procedure:
as §1
The Hsp encoding genes are transactivated through the binding of HSF to the heat shock element found on the DNA upstream of the Hsp genes, in the so called promoter region. In the absence of heat stress, the heat shock factors are present as monomers. Upon heat stress, however, the heat shock factors form trimers, which are the active components, able to bind to heat shock elements. Once HSF is bound to the heat shock element in the promoter of Hsp genes, the gene following the promoter region is transcriptionally active.
as §2, §3
In general terms: Flow cytometry measures light scatter and fluorescence of single cells or particles in a stream.

The subject of the next data set is Zucker obese rat. The experiment in a line: Insulin resistance, Zucker obese rat. Format: in vivo. On the procedure:
Insulin sensitizing activity of the compounds was tested in Zucker obese rat at three doses (10, 30 and 100 mg/kg), 6 weeks old Zucker obese (ZO) rats were adapted for a week before the administration of the compound. The animals were treated once a day for 5 days with compound Ex. 1 with 10, 30 and 100 mg/kg dose by stomach probe. The control group was treated with Klucel solution. The animals were kept in metabolic cage during the experiment, their food and drink consumption, the amount of urine and faeces was determined daily.
At the end of the treatment period the animals were fasted for 16 hours, the fasting plasma glucose level was determined. At the end the animals were sacrificed and different organs were taken for Hsp measurement.

The mark [1] stands for this setting: model in which efficacy was shown.

Each structure is given as a SMILES string. Marks after values point to notes of the source that are not given here.

In the case of `COC(=O)C1=C(C)N(C)C(CCN(C)C)=C(C(=O)OC)C1c1ccc(C(F)(F)F)cc1.Cl` (centres unmarked) [Example 14, Dimethyl 2-(2-dimethylaminoethyl)-1,6-dimethyl-4-(4-trifluoromethylphenyl)-1,4-dihydropyridine-3,5-dicarboxylate hydrochloride], the “Other in vitro effects” value with other Hsps amounted to 0. Moreover, the “Increase in life span” value in the data set with B16 melanoma cells (10 mg/kg i.p. daily from day 7 to day 29) came out at 18%. Also, the Mean survival time with B16 melanoma cells (10 mg/kg i.p. daily from day 7 to day 29, control 25.25+/−4.13 days) was 29.91 ± 3.78 days. Also, the “drug-related mortality and weight loss” value in the data set on B16 melanoma cells (10 mg/kg i.p. daily, tumor bearing mice) is given as “did not produce drug-related mortality or weight loss”. Moreover, in the data set with B16 melanoma cells (setting [1]), the In vivo efficacy entry is listed as “Cancer mono-”.
`O=C(O)C1=CN(Cc2ccccc2)C=C(C(=O)O)C1c1ccccc1` [Example 39, 1-Benzyl-4-phenyl-1,4-dihydropyridine-3,5-dicarboxylic acid]: the melting point – broadly, the temperature of the solid-liquid transition – fell in the range of 204 to 206 °C. The “Other in vitro effects” value in the data set with other Hsps was 0. Also, the Hsp70 modulation entry with Hsp70 promoter is listed as “−”.
The corresponding values for `COC(=O)C1=C(C)N(C)C(C)=C(C(=O)OC)C1c1ccco1` [Example 44, Dimethyl 4-(furan-2-yl-1,2,6-trimethyl-1,4-dihydropyridine-3,5-dicarboxylate] are 142 to 143 °C, 0 and “+”.
The molecule `COC(=O)C1=C(C)N(C)C(CCN(C)C)=C(C(=O)OC)C1c1cc(F)cc(F)c1.Cl` (centres unmarked) [Example 26, Dimethyl 4-(3,5-difluorophenyl)-2-(2-dimethylamino-ethyl)-1,6-dimethyl-1,4-dihydropyridine-3,5-dicarboxylate hydrochloride] displayed a melting point of 201 to 203 °C. The “Other in vitro effects” value with other Hsps stood at 0. Further, the Hsp70 modulation entry in the data set on Hsp70 promoter is on record as “+”.
In turn, `CCOC(=O)C1=CN(Cc2ccccc2)C=C(C(=O)OCC)C1c1ccc(C(F)(F)F)cc1` [Example 34] came in with a melting point of 107 to 108 °C. Besides, the “Other in vitro effects” value with other Hsps was found to be 0. For the same molecule, the Hsp70 modulation result with Hsp70 promoter is listed as “+”.
The molecule `COC(=O)C1=C(C)N(C)C(C)=C(C(=O)OC)C1c1cccnc1` [Example 12, Dimethyl 1,2,6-trimethyl-4-(3-piridyl)-1,4-dihydropyridine-3,5-dicarboxylate] gave a melting point of 173 to 175 °C. The “Other in vitro effects” value in the data set on other Hsps was 0. Also, in the data set with Hsp70 promoter, the Hsp70 modulation entry is reported as “−”.
As to `COC(=O)C1=C(C)N(C)C(CCN2CCc3ccccc3C2)=C(C(=O)OC)C1c1ccc(C(F)(F)F)cc1.O=C(O)/C=C/C(=O)O` (centres unmarked) [Example 40, Dimethyl 2-[2-(1,2,3,4-tetrahidroisoquinolin-2-yl)-ethyl]-1,6-dimethyl-4-(4-trifluoromethyl-phenyl)-1,4-dihydropyridine-3,5-dicarboxylate fumarate], the melting point is 186 to 188 °C. Besides, in the data set on other Hsps, the “Other in vitro effects” value is listed as 0. For the same molecule, in the data set on Hsp70 promoter, the Hsp70 modulation result is recorded as “+”.
On to `CCOC(=O)C1=CN(C2CC2)C=C(C(=O)OCC)C1c1ccc(C(F)(F)F)cc1` [Example 33, Diethyl 1-cyclopropyl-4-(4-trifluoromethylphenyl)-1,4-dihydro-pyridine-3,5-dicarboxylate], for which the melting point was 123 to 124 °C. Moreover, the “Other in vitro effects” value with other Hsps is listed as 0. The Hsp70 modulation entry with Hsp70 promoter is “+”.
`CCOC(=O)C1=CN(C)C=C(C(=O)OCC)C1c1ccc(C(F)(F)F)cc1` [Example 37, Diethyl 1-methyl-4-(4-trifluoromethylphenyl)-1,4-dihydropyridine-3,5-dicarboxylate] returned a melting point of 94 to 96 °C. Moreover, in the data set on other Hsps, the “Other in vitro effects” value was determined as 0. For the same molecule, the Hsp70 modulation entry with Hsp70 promoter is given as “+”.
In the same order, the values of `COC(=O)C1=C(C)N(C)C(C)=C(C(=O)OC)C1c1ccsc1` [Example 45, Dimethyl 1,2,6-Trimethyl-4-(thiophen-3-yl)-1,4-dihydropyridine-3,5-dicarboxylate] are 187 to 189 °C, 0 and “+”.
The molecule `COC(=O)C1=C(C)N(C)C(C)=C(C(=O)OC)C1c1cccc(C(F)(F)F)c1` [Example 7, Dimethyl 1,2,6-trimethyl-4-(3-trifluoromethylphenyl)-1,4-dihydropyridine-3,5-dicarboxylate] returned a melting point of 118 to 119 °C. In addition, the “Other in vitro effects” value with other Hsps is recorded as 0. The Hsp70 modulation result in the data set on Hsp70 promoter is listed as “+”.
In turn, `COC(=O)C1=C(C)N(C)C(C)=C(C(=O)OC)C1c1ccc(C(F)(F)F)cc1` [Example 1, Dimethyl 1,2,6-trimethyl-4-(4-trifluoromethylphenyl)-1,4-dihydropyridine-3,5-dicarboxylate] had a melting point of 159 to 160 °C. The “Other in vitro effects” value in the data set on other Hsps is listed as 0****. In the data set on Hsp70 promoter, the Hsp70 modulation entry was “+*”. Also, the “fasting plasma glucose level” value with Zucker obese rat (10, 30 and 100 mg/kg once a day for 5 days by stomach probe, 16 h fasted, FIG. 5A) was “improved fasting plasma glucose level”. The “Hsp70 amount in brown adipose tissue” value with Zucker obese rat (10, 30 and 100 mg/kg once a day for 5 days, Western blot, FIG. 5B) is “elevated Hsp70 amount in brown adipose tissue”. For the same molecule, in the data set with Zucker obese rat (setting [1]), the In vivo efficacy entry was “Insulin resistance”.
As to `COC(=O)C1=C(C)N(C)C(C)=C(C(=O)OC)C1c1ccccc1` [Example 3, Dimethyl 1,2,6-trimethyl-4-phenyl-1,4-dihydropyridine-3,5-dicarboxylate], the melting point is 201 to 203 °C. Also, the “Other in vitro effects” value in the data set with other Hsps was determined as 0. Moreover, the Hsp70 modulation result in the data set with Hsp70 promoter was “+”.
The molecule `CCOC(=O)C1=C(C)N(C)C(C)=C(C(=O)OC)C1c1ccc(C(F)(F)F)cc1` (centres unmarked) [Example 32] displayed a melting point of 146 to 149 °C. In addition, the “Other in vitro effects” value with other Hsps is on record as 0. Moreover, in the data set with Hsp70 promoter, the Hsp70 modulation result is reported as “+”.
